Consider 37 molecules from the Biogen ADME set (Fang et al. 2023).

For the series the following is noted: for aqueous solubility: pH 6.8.

In brackets after ≈: the same amount, converted by molar mass. A value given as a limit tells only on which side of the number the result lay.

Broadly, the aqueous solubility is the dissolved amount per volume that the medium holds. A low value points to a poorly soluble substance. As to `COc1ccccc1OC1CCN(Cc2ccccc2C#N)CC1`, the MDR1-MDCK efflux ratio is 0.557; the intrinsic clearance, human liver microsomes came out at 220 mL/min/kg; the intrinsic clearance, rat liver microsomes was found to be 1510 mL/min/kg; the aqueous solubility worked out at 41.1 µg/mL (≈ 127 µM).
The matching figures for `Cn1cc(C(=O)O)c(C2CCCCC2)n1`: 1.04, at most 4.74 mL/min/kg, at most 10.7 mL/min/kg and 33.6 µg/mL (≈ 161 µM).
The corresponding values for `Cc1oc(C)c(C(=O)NCC#Cc2ccccc2)c1C` are 0.446, 107 mL/min/kg, 1320 mL/min/kg and 48 µg/mL (≈ 180 µM).
Take `COc1cccc(C)c1C(=O)N(C)CCCn1cccn1`: the MDR1-MDCK efflux ratio came out at 3.55; the intrinsic clearance, human liver microsomes came to 38 mL/min/kg; the intrinsic clearance, rat liver microsomes was found to be 500 mL/min/kg.
The corresponding values for `CCCc1cc(C)nc(O)c1CNC(=O)c1cc(-c2ccc(N3CCN(C(C)C)CC3)nc2)cc2c1cnn2C(C)C` are 122, 120 mL/min/kg and 235 mL/min/kg.
The matching figures for `OCc1nnc(SCCSC2CCCCC2)n1C1CC1`: 1.96, 29 mL/min/kg and 728 mL/min/kg.
With `COc1ccc(Cc2nnn[nH]2)cc1F`, the intrinsic clearance, human liver microsomes was at most 4.74 mL/min/kg and the intrinsic clearance, rat liver microsomes was at most 10.7 mL/min/kg.
Take `O=C(Nc1nc2cc(C(F)(F)F)cc(NC3CC3)n2n1)c1cccnc1`: the MDR1-MDCK efflux ratio is 2.35; the intrinsic clearance, human liver microsomes is at most 4.74 mL/min/kg; the intrinsic clearance, rat liver microsomes stood at 39.6 mL/min/kg; the aqueous solubility was found to be 1.1 µg/mL (≈ 3.04 µM).
As to `Fc1cccc(Cn2nnc(-c3ccccc3)n2)c1F`, the MDR1-MDCK efflux ratio turned out to be 0.358 and the aqueous solubility is 0.1 µg/mL (≈ 0.367 µM).
The corresponding values for `Cc1ccc(S(=O)(=O)Nc2ccc3c(c2)c(C(=O)C(F)(F)F)cn3CC(=O)N[C@@H](CC(C)C)C(=O)O)cc1` are 20 and 80.4 µg/mL (≈ 145 µM).
`COCCOc1ccc2c(c1)ncn2-c1ccc2cccc(N3CCC(N)CC3)c2n1` returned an intrinsic clearance, human liver microsomes of 14.7 mL/min/kg; an intrinsic clearance, rat liver microsomes of 258 mL/min/kg; an aqueous solubility of 30.4 µg/mL (≈ 72.7 µM).
Take `Cc1cc(NC(=O)N2Cc3cc4c(cc3C3(CCCC3)C2)OCCO4)no1`: the MDR1-MDCK efflux ratio was 0.72 and the aqueous solubility came to 0.3 µg/mL (≈ 0.812 µM).
With `C1CN(c2nc3c(c(N4CCSCC4)n2)SCC3)CCS1`, the MDR1-MDCK efflux ratio came to 0.383; the intrinsic clearance, human liver microsomes came to 126 mL/min/kg; the intrinsic clearance, rat liver microsomes turned out to be 1530 mL/min/kg.
`N=C(NC(=O)OCc1ccccc1)c1ccc(CN)cc1` gave an aqueous solubility of 30.6 µg/mL (≈ 108 µM).
`O=S(=O)(Cc1csc(C2CCCC2)n1)C1CCCC1`: the MDR1-MDCK efflux ratio is 0.538; the intrinsic clearance, human liver microsomes came to 92.7 mL/min/kg; the intrinsic clearance, rat liver microsomes was found to be 2190 mL/min/kg; the aqueous solubility is 34.9 µg/mL (≈ 116 µM).
For the molecule `O=C(O)CCC(=O)Nc1ccccc1-c1nc2ccccc2[nH]c1=O`, the MDR1-MDCK efflux ratio was found to be 0.345; the intrinsic clearance, human liver microsomes was at most 4.74 mL/min/kg; the intrinsic clearance, rat liver microsomes was at most 10.7 mL/min/kg; the aqueous solubility is 60.7 µg/mL (≈ 180 µM).
The corresponding values for `CC(=O)NCCCOc1ccc(CN2C[C@H](Oc3cccc(C)c3)[C@@H](O)C2)cc1` are 31.2, 12.1 mL/min/kg, 553 mL/min/kg and 44.9 µg/mL (≈ 113 µM).
The matching figures for `Cc1nc(C)c2c(C)c(C(=O)N(C)CCN3CCCC3)sc2n1`: 12.6, at most 4.74 mL/min/kg, 77.8 mL/min/kg and 60.9 µg/mL (≈ 183 µM).
Take `Cc1nnc(NC(C2CC2)C2CC2)c(C#N)c1C`: the aqueous solubility was 7.54 µg/mL (≈ 31.1 µM).
Consider `CCOc1cc(N2CCc3nc[nH]c3C2)ncn1`, for which the intrinsic clearance, human liver microsomes is at most 4.74 mL/min/kg and the intrinsic clearance, rat liver microsomes came to 77.8 mL/min/kg.
Take `O=C(CCn1nnc2ccccc2c1=O)Nc1ccncc1`: the MDR1-MDCK efflux ratio came to 4.06; the intrinsic clearance, human liver microsomes was determined as 9.23 mL/min/kg; the intrinsic clearance, rat liver microsomes is 84.8 mL/min/kg; the aqueous solubility worked out at 21.4 µg/mL (≈ 72.3 µM).
In the case of `CC(C)(O)[C@H]1O[C@H]2CC[C@@]3(C)[C@@](O)(CC[C@H]4Cc5c([nH]c6ccccc56)[C@@]43C)C2=CC1=O`, the aqueous solubility stood at 0.99 µg/mL (≈ 2.27 µM).
Consider `CCN1CCN(S(=O)(=O)c2c[nH]c(C(C)C)n2)c2ccccc21`, for which the MDR1-MDCK efflux ratio is 20.2; the intrinsic clearance, human liver microsomes amounted to 258 mL/min/kg; the intrinsic clearance, rat liver microsomes amounted to 248 mL/min/kg.
For the molecule `CCN1CCC(Oc2ncnc3c2c(C)c(C)n3C2CCCCC2)CC1`, the intrinsic clearance, human liver microsomes is 31.7 mL/min/kg and the intrinsic clearance, rat liver microsomes turned out to be 725 mL/min/kg.
For `Cc1cc(-c2nncc3c(C(C)(C)C)c(OCc4ncnn4C)nn23)no1`, the MDR1-MDCK efflux ratio stood at 8.04; the intrinsic clearance, human liver microsomes was at most 4.74 mL/min/kg; the intrinsic clearance, rat liver microsomes came to 83.6 mL/min/kg.
Turning to `N#Cc1cccnc1NCCc1ccc(F)cc1`, the MDR1-MDCK efflux ratio is 0.519; the intrinsic clearance, human liver microsomes came to 179 mL/min/kg; the intrinsic clearance, rat liver microsomes worked out at 1150 mL/min/kg; the aqueous solubility came out at 2.69 µg/mL (≈ 11.1 µM).
Molecule `CC1(C)C(=O)N(Cc2ccc(CO)cc2)C(=O)c2ccccc21` came in with an aqueous solubility of 27.5 µg/mL (≈ 88.8 µM).
`COc1cc(Nc2c(C#N)cnc3cc(OCCCN4CCN(C)CC4)c(OC)cc23)c(Cl)cc1Cl`: the MDR1-MDCK efflux ratio amounted to 123.
`Cc1nc(-c2ccccc2)c(C(=O)Nc2cc(Cl)cc(Cl)c2)s1` gave an intrinsic clearance, human liver microsomes of 25.7 mL/min/kg and an intrinsic clearance, rat liver microsomes of 230 mL/min/kg.
As to `OCCOc1ccccc1OCc1ncc(Cl)cc1Cl`, the MDR1-MDCK efflux ratio was 0.551; the intrinsic clearance, human liver microsomes is 48.5 mL/min/kg; the intrinsic clearance, rat liver microsomes was determined as 319 mL/min/kg.
`Cn1c(NC(=O)c2ccn(COc3ccccc3)n2)nc2ccccc21` had an aqueous solubility of 5.8 µg/mL (≈ 16.7 µM).
Regarding `Cn1ccc(NC(=O)[C@H]2CCCCN2C(=O)OC(C)(C)C)n1`, the MDR1-MDCK efflux ratio was 2.54; the intrinsic clearance, human liver microsomes was at most 4.74 mL/min/kg; the intrinsic clearance, rat liver microsomes was found to be 154 mL/min/kg; the aqueous solubility worked out at 42.4 µg/mL (≈ 137 µM).
The matching figures for `Cc1cccn(Cc2cccc(F)c2)c1=O`: 0.652, at most 4.74 mL/min/kg, 72 mL/min/kg and 23.9 µg/mL (≈ 110 µM).
Consider `Cc1cc(C)cc(C(=O)NCCCNc2ncccn2)c1`, for which the aqueous solubility is 52.5 µg/mL (≈ 185 µM).
As to `CCCn1cnnc1CN(C)Cc1cc(C(C)C)on1`, the MDR1-MDCK efflux ratio stood at 15.3; the intrinsic clearance, human liver microsomes was at most 4.74 mL/min/kg; the intrinsic clearance, rat liver microsomes worked out at 534 mL/min/kg.
Consider `CCCc1nnc(NCc2cn3ccc(C)cc3n2)o1`, for which the MDR1-MDCK efflux ratio turned out to be 3.5; the intrinsic clearance, human liver microsomes was at most 4.74 mL/min/kg; the intrinsic clearance, rat liver microsomes came out at 34 mL/min/kg; the aqueous solubility is 21.9 µg/mL (≈ 80.9 µM).
For the molecule `NC1CCC(C(=O)N2CCC(c3c[nH]c4ncccc34)CC2)C1` (stereo not drawn), the MDR1-MDCK efflux ratio worked out at 2.66; the fraction unbound, human plasma was found to be 0.827; the intrinsic clearance, human liver microsomes was at most 4.74 mL/min/kg.
